According to the NIST ThermoML archive (doi:10.1021/je400055v):
Numbers after ± are expanded uncertainties.

Test: xn = mol fraction of the nth substance listed
Details: Liquid, Vibrating tube method

CCCCCCCCCCC [undecane] + CCCCCCC
Details	mass density [kg/m3]
342.97 K, 1001 kPa, x2 = 0.9511	645.7 ± 0.3
342.97 K, 2000 kPa, x2 = 0.9511	647 ± 0.3
342.97 K, 3000 kPa, x2 = 0.9511	648.4 ± 0.3
342.97 K, 4000 kPa, x2 = 0.9511	649.7 ± 0.3
342.97 K, 5000 kPa, x2 = 0.9511	650.9 ± 0.3
342.97 K, 6000 kPa, x2 = 0.9511	652.2 ± 0.3
342.97 K, 7000 kPa, x2 = 0.9511	653.4 ± 0.3
342.97 K, 8000 kPa, x2 = 0.9511	654.6 ± 0.3
342.97 K, 9000 kPa, x2 = 0.9511	655.8 ± 0.3
342.97 K, 10000 kPa, x2 = 0.9511	657 ± 0.4
342.97 K, 11000 kPa, x2 = 0.9511	658.1 ± 0.4
342.97 K, 12000 kPa, x2 = 0.9511	659.2 ± 0.4
342.97 K, 13000 kPa, x2 = 0.9511	660.3 ± 0.4
342.97 K, 14001 kPa, x2 = 0.9511	661.4 ± 0.4
342.97 K, 15001 kPa, x2 = 0.9511	662.5 ± 0.4
342.97 K, 16000 kPa, x2 = 0.9511	663.5 ± 0.4
342.97 K, 17001 kPa, x2 = 0.9511	664.5 ± 0.4
342.97 K, 18001 kPa, x2 = 0.9511	665.6 ± 0.4
342.97 K, 19000 kPa, x2 = 0.9511	666.6 ± 0.4
342.97 K, 20000 kPa, x2 = 0.9511	667.5 ± 0.4
342.97 K, 21001 kPa, x2 = 0.9511	668.5 ± 0.5
342.97 K, 22000 kPa, x2 = 0.9511	669.4 ± 0.5
342.97 K, 23001 kPa, x2 = 0.9511	670.4 ± 0.5
342.97 K, 24000 kPa, x2 = 0.9511	671.3 ± 0.5
342.97 K, 25000 kPa, x2 = 0.9511	672.2 ± 0.5
343.01 K, 2001 kPa, x2 = 0.5063	680.1 ± 0.3
343.01 K, 3000 kPa, x2 = 0.5063	681.2 ± 0.3
343.01 K, 4000 kPa, x2 = 0.5063	682.3 ± 0.3
343.01 K, 5000 kPa, x2 = 0.5063	683.4 ± 0.3
343.01 K, 6000 kPa, x2 = 0.5063	684.5 ± 0.3
343.01 K, 7000 kPa, x2 = 0.5063	685.5 ± 0.3
343.01 K, 8001 kPa, x2 = 0.5063	686.5 ± 0.3
343.01 K, 9000 kPa, x2 = 0.5063	687.6 ± 0.3
343.01 K, 10000 kPa, x2 = 0.5063	688.6 ± 0.3
343.01 K, 11000 kPa, x2 = 0.5063	689.5 ± 0.3
343.01 K, 12000 kPa, x2 = 0.5063	690.5 ± 0.3
343.01 K, 13000 kPa, x2 = 0.5063	691.5 ± 0.4
343.01 K, 14000 kPa, x2 = 0.5063	692.4 ± 0.4
343.01 K, 15000 kPa, x2 = 0.5063	693.4 ± 0.4
343.01 K, 16000 kPa, x2 = 0.5063	694.3 ± 0.4
343.01 K, 17001 kPa, x2 = 0.5063	695.2 ± 0.4
343.01 K, 18000 kPa, x2 = 0.5063	696.1 ± 0.4
343.01 K, 19000 kPa, x2 = 0.5063	697 ± 0.4
343.01 K, 20000 kPa, x2 = 0.5063	697.8 ± 0.4
343.01 K, 21001 kPa, x2 = 0.5063	698.7 ± 0.4
343.01 K, 22050 kPa, x2 = 0.5063	699.5 ± 0.4
343.01 K, 23000 kPa, x2 = 0.5063	700.4 ± 0.4
343.01 K, 24000 kPa, x2 = 0.5063	701.2 ± 0.4
343.01 K, 25000 kPa, x2 = 0.5063	702 ± 0.5
343.02 K, 1001 kPa, x2 = 0.05	701.5 ± 0.3
343.02 K, 2001 kPa, x2 = 0.05	702.5 ± 0.3
343.02 K, 3000 kPa, x2 = 0.05	703.6 ± 0.3
343.02 K, 4000 kPa, x2 = 0.05	704.6 ± 0.3
343.02 K, 5000 kPa, x2 = 0.05	705.5 ± 0.3
343.02 K, 6000 kPa, x2 = 0.05	706.5 ± 0.3
343.02 K, 7000 kPa, x2 = 0.05	707.5 ± 0.3
343.02 K, 8001 kPa, x2 = 0.05	708.4 ± 0.3
343.02 K, 9000 kPa, x2 = 0.05	709.3 ± 0.3
343.02 K, 10000 kPa, x2 = 0.05	710.2 ± 0.3
343.02 K, 11000 kPa, x2 = 0.05	711.1 ± 0.3
343.02 K, 12000 kPa, x2 = 0.05	712 ± 0.3
343.02 K, 13000 kPa, x2 = 0.05	712.9 ± 0.3
343.02 K, 14000 kPa, x2 = 0.05	713.8 ± 0.4
343.02 K, 15000 kPa, x2 = 0.05	714.6 ± 0.4
343.02 K, 16000 kPa, x2 = 0.05	715.5 ± 0.4
343.02 K, 17000 kPa, x2 = 0.05	716.3 ± 0.4
343.02 K, 18000 kPa, x2 = 0.05	717.1 ± 0.4
343.02 K, 19000 kPa, x2 = 0.05	717.9 ± 0.4
343.02 K, 20000 kPa, x2 = 0.05	718.7 ± 0.4
343.02 K, 21000 kPa, x2 = 0.05	719.5 ± 0.4
343.02 K, 22001 kPa, x2 = 0.05	720.3 ± 0.4
343.02 K, 23000 kPa, x2 = 0.05	721.1 ± 0.4
343.02 K, 24000 kPa, x2 = 0.05	721.8 ± 0.4
343.02 K, 25000 kPa, x2 = 0.05	722.6 ± 0.4
343.03 K, 1000 kPa, x2 = 0.7482	662.4 ± 0.3
343.03 K, 2000 kPa, x2 = 0.7482	663.6 ± 0.3
343.03 K, 3000 kPa, x2 = 0.7482	664.9 ± 0.3
343.03 K, 4000 kPa, x2 = 0.7482	666.1 ± 0.3
343.03 K, 5000 kPa, x2 = 0.7482	667.2 ± 0.3
343.03 K, 6000 kPa, x2 = 0.7482	668.4 ± 0.3
343.03 K, 7000 kPa, x2 = 0.7482	669.5 ± 0.3
343.03 K, 8000 kPa, x2 = 0.7482	670.6 ± 0.3
343.03 K, 9000 kPa, x2 = 0.7482	671.7 ± 0.3
343.03 K, 10000 kPa, x2 = 0.7482	672.8 ± 0.3
343.03 K, 11000 kPa, x2 = 0.7482	673.9 ± 0.4
343.03 K, 12000 kPa, x2 = 0.7482	674.9 ± 0.4
343.03 K, 13000 kPa, x2 = 0.7482	675.9 ± 0.4
343.03 K, 14000 kPa, x2 = 0.7482	677 ± 0.4
343.03 K, 15000 kPa, x2 = 0.7482	678 ± 0.4
343.03 K, 16000 kPa, x2 = 0.7482	678.9 ± 0.4
343.03 K, 17000 kPa, x2 = 0.7482	679.9 ± 0.4
343.03 K, 18000 kPa, x2 = 0.7482	680.8 ± 0.4
343.03 K, 19000 kPa, x2 = 0.7482	681.8 ± 0.4
